{"source": "patent US20250057791A1", "about": "“PROTECTION AGAINST ARTHROPOD PARASITES WITH PURINERGIC RECEPTOR (OPR) ANTAGONISTS” (priority 2021, published 2025)", "key": {"A. gambiae": {"test_system": "A. gambiae", "test": "Membrane feeding assay, A. gambiae", "type": "in vivo, Anopheles gambiae", "conditions": "for effect on feeding on solution containing ATP, in words: 20 μM ATP, CPT at 10 μM", "procedure": "(§1) Experiments with A. gambiae and A. stephensi were made in a climate chamber at 28° C. and 80% RH during the last 6 hours of scotophase. As a sugar meal can interfere with the blood meal by reducing the number of females that feed, the sucrose solution supplied in rearing cages to mosquitoes employed for feeding experiments was reduced to 5%. […] The 5% sucrose solution was presented to mosquitoes from emergence on four 1 cm diam. cotton dental rolls (Hartmann A G, Neuhausen, Switzerland) inserted in 10 ml upturned glass vials placed in holes at each corner of the rearing cage ceiling. Cotton rolls were turned daily in vials and renewed every two days. Mosquitoes were not fed blood and were deprived of sucrose 17 to 20 hours before experiments. Thirty min before a feeding experiment, between 10-25, 6-day-old females that responded to activation by human breath were removed with a mouth aspirator from the rearing cage wall and placed in polystyrol cylinders with the floor cut out (10 cm dm×15 cm high; Semadeni, Ostermundigen, Switzerland) that served as feeding cages. Each cage was covered with mosquito netting at one end and a soft polyurethane lid at the other.\n(§2) Mosquitoes were fed for 30 min using a feeding system (Hemotek®, Hemotek Ltd, Blackburn, UK) consisting of 3.5 ml stainless steel reservoirs 37 mm in diameter covered with a 60-90 μm thick silicone-impregnated membrane (Kröber and Guerin, 2007 in “Feeding assays for hard ticks”, Trends in parasitology 23, 445-449; doi 10.1016/j.pt.2007.07.010). Feeding reservoirs reached a temperature of 37° C. within 10 min and were placed on the netting of feeding cages. Mosquitoes were activated using a 200 ms pulse of pure CO2 (volume 6.25 ml) from a pressurised cylinder (Carbagas, Switzerland) using a solenoid valve that caused the CO2 level in the feeding cage to rise to at least 1,500 ppm. Between 3 and 4 sets of 10 feeding cages held in a custom-built Ertacetal® POM frame were tested per day, depending of the number of female mosquitoes available from the colony.\n(§3) All compounds were tested in a mosquito feeding solution (FS) consisting of 25 mM dextrose, 25 mM NaCl buffered with 8.93 mM NaHCO3 adjusted to pH 7.4. Feeding responses of A. gambiae and A. stephensi to ATP as a function of dose were tested with between 7 to 10 feeding cages per dose. Each feeding experiment with an antagonist systematically included a treatment containing the FS as negative control along with a treatment containing the FS with 20 pM ATP added as positive control for A. gambiae and with 160 pM ATP added as positive control for A. stephensi. These positive and negative controls permitted to monitor any effect of experimental day on feeding responses as a function of dose for antagonists that were recorded over several days. […] Four to 10 cages each with 10 to 29 mosquitoes were tested per antagonist dose. […] The number of feeding cages used to test other compounds and their mixtures as feeding stimulants or as feeding inhibitors is listed on Table 6. The percentage of fed mosquitoes was estimated by visual inspection of abdominal distention that is indicative of engorgement.\n(§4) Pairwise comparisons of A. gambiae electrophysiological (EP) responses to ATP and adenosine alone and combined with a given dose of PR antagonist, EP responses to ATP alone and combined with a given dose of a metal modulator, and EP responses to ATP prior to and after exposure of a sensillum to a given dose of a PR antagonist were made with a one-tailed Wilcoxon signed-rank test for data showing a non-normal distribution, with a paired Student's t-test for normally distributed data showing homogeneous variance and with a Welch's t-test for normally distributed data showing non-homogeneous variance. […]"}, "[1]": {"test_system": "A. gambiae mouthpart ATP-sensitive receptor", "test": "Electrophysiological response to 200 pM ATP with PR antagonist admixed", "type": "cell-based, Anopheles gambiae", "conditions": "for ID95 in nM (±s.e.m.): increasing doses admixed to 200 pM ATP; for effect on EP response to ATP, in words: suramin at 1 nM", "procedure": "(§5) The tip recording method was used to record action potentials (spikes) from sensory cells in sensilla on A. gambiae labellum lobes.\n(§6) Sensilla were exposed to test compounds and PR antagonists for ca. 2-4 s and spikes were counted in the first 2 s of recordings. Up to 4 test compounds were tested on a sensillum to evaluate potential agonists, each presented at 200 pM. To study responses as a function of dose for agonists ATP, adenosine, AMP, AMP-CPP and ATP+adenosine, up to 7 recordings were made at increasing doses of agonist from the same sensillum. Unless otherwise stated, recordings were made throughout from 4 to 16 sensilla from individual 4-6-day-old females per dose of agonist, antagonist and metal ion modulator. For example, a response curve established over 6 doses of an antagonist using 8 sensilla per dose involved recording from a sensillum of 48 separate mosquitoes. A given dose of a PR antagonist or metal ion modulator was only presented once to a sensillum. Two-second recordings were imported as ASCII files into DataView software for analysis of spike amplitude. Differences in spike amplitude generated by stimulation of one 8v sensillum/female with 1 mM sucrose (n=294 spikes from 6 females) 200 pM adenosine (n=207 spikes from 7 females) and 200 pM ATP (n=192 spikes from 7 females) were compared by measuring the spike amplitude in mV between the highest point of depolarisation and the lowest point of hyperpolarisation.\nPairwise comparisons of A. gambiae electrophysiological (EP) responses to ATP and adenosine alone and combined with a given dose of PR antagonist, EP responses to ATP alone and combined with a given dose of a metal modulator, and EP responses to ATP prior to and after exposure of a sensillum to a given dose of a PR antagonist were made with a one-tailed Wilcoxon signed-rank test for data showing a non-normal distribution, with a paired Student's t-test for normally distributed data showing homogeneous variance and with a Welch's t-test for normally distributed data showing non-homogeneous variance. Effects on feeding of adding ATP, AMP-CPP, adenosine, ATP+adenosine, AMP and ADP-βS, CPT with ATP or adenosine, TMP with ATP+adenosine, TMP+CPT with ATP+adenosine to the FS for A. gambiae, and of adding PR antagonists with ATP to the FS for A. stephensi were compared using one-tailed Mann-Whitney U-test or Welch's t-test, depending on data distribution; Holm's FWEC was applied where treatment comparisons involved the same positive control. Percent feeding inhibition induced by PR antagonists in A. stephensi was calculated using Abbott's formula.\nDose-response models fitted to mosquito data were generated using the ‘drm’ command in the “drc” R package (version 2.5-12). Best fitting models (goodness of fit) and effects of dose of a compound were assessed using, respectively, ‘modelFit’ and ‘noEffect’ functions in the same R package. A 3-parameter logistic model (L3) was fitted to spike-counts recorded to increasing doses of adenosine, AMP, ATP and AMP-CPP. Spike numbers recorded in response to 200 pM ATP with increasing doses of PR antagonists added were analysed using a 4-parameter log-logistic model (LL.4) for A-317491 and spinorphin, using a 4-parameter Weibull model (W1.4) for PPADS, RB-2 and TMP, and using a 3-parameter log-logistic model (LL.3) for suramin. An L3 model was fitted to proportions of females feeding on increasing doses of ATP. Feeding rates on 20 μM ATP with increasing doses of a PR antagonist added were analysed using a 4-parameter log-logistic model (LL.4) with the median of the positive control (20 μM ATP) fixed as the upper asymptote. Response dynamics in 3-parameter models are related to the slope b, the upper asymptote, and inflexion point of the model e (the ED50 value), whereas 4 parameter models also include the lower asymptote parameter. […]"}, "A. stephensi": {"test_system": "A. stephensi", "test": "Membrane feeding assay, A. stephensi", "type": "in vivo, Anopheles stephensi", "procedure": "as §1, §2\nas §3, with “with 20 pM ATP added as positive control for A. gambiae and with 160 pM ATP added as positive control for A. stephensi.” left out\nas §4"}, "malaria mosquito P1 PR": {"test_system": "malaria mosquito P1 PR", "test": "Electrophysiological response to 200 pM adenosine with PR antagonist admixed", "type": "cell-based, Anopheles gambiae", "procedure": "as §5\nas §6, with “Differences in spike amplitude generated by stimulation of one 8v sensillum/female with 1 mM sucrose (n=294 spikes from 6 females) 200 pM adenosine (n=207 spikes from 7 females) and 200 pM ATP (n=192 spikes from 7 females) were compared by measuring the spike amplitude in mV between the highest point of depolarisation and the lowest point of hyperpolarisation.” left out\nPairwise comparisons of A. gambiae electrophysiological (EP) responses to ATP and adenosine alone and combined with a given dose of PR antagonist, EP responses to ATP alone and combined with a given dose of a metal modulator, and EP responses to ATP prior to and after exposure of a sensillum to a given dose of a PR antagonist were made with a one-tailed Wilcoxon signed-rank test for data showing a non-normal distribution, with a paired Student's t-test for normally distributed data showing homogeneous variance and with a Welch's t-test for normally distributed data showing non-homogeneous variance. […] Percent feeding inhibition induced by PR antagonists in A. stephensi was calculated using Abbott's formula."}}, "data": [{"smiles": "Cc1nc(/N=N/c2ccc(S(=O)(=O)O)cc2S(=O)(=O)O)c(COP(=O)(O)O)c(C=O)c1O", "note": "[PPADS, pyridoxal phosphate-6-azophenyl-2′,4′-disulfonic acid]", "values": [{"measurement": "effect on feeding on solution containing ATP, in words", "setting": "A. gambiae", "result": "inhibited feeding"}, {"measurement": "% fed mosquitoes (mean ± s.e.m.), ATP + antagonist", "setting": "A. gambiae; antagonist 100 μM + 20 μM ATP", "result": 33.39, "unit": "%"}, {"measurement": "Mean no. of spikes per 2 s (±s.e.m.), ATP + antagonist", "setting": "[1]; antagonist 50 nM + 200 pM ATP", "result": 8.13, "unit": "spikes per 2 s"}, {"measurement": "ID95 in nM (±s.e.m.)", "setting": "[1]", "result": 12.66, "unit": "nM"}, {"measurement": "% Fed females (mean ± s.e.m.)", "setting": "A. stephensi; 800 μM, feeding solution with 160 μM ATP", "result": "37.29 ± 3.75", "unit": "%"}, {"measurement": "inhibition at 800 µM", "setting": "A. stephensi; Anopheles stephensi, 800 μM, Abbott's formula", "result": 48.9, "unit": "%"}, {"measurement": "effect on feeding on solution containing ATP, in words", "setting": "A. stephensi; doses as in Table 8", "result": "inhibited feeding"}]}, {"smiles": "Cn1c(=O)c2[nH]cnc2n(C)c1=O", "note": "[Theophylline, 1,3-dimethylxanthine]", "values": [{"measurement": "EP response, adenosine theophylline combination", "setting": "malaria mosquito P1 PR; 1 μM theophylline + 200 pM adenosine", "result": "17.63±4.48", "unit": "spikes/2s"}]}, {"smiles": "Cc1nc(N=Nc2ccc(C(=O)O)cc2)c(COP(=O)(O)O)c(C=O)c1O", "note": "[MRS 2159, [2-[(4-carboxyphenyl)diazenyl]-4-formyl-6-methyl-5-oxidopyridin-3-yl]methyl phosphate]", "values": [{"measurement": "% fed mosquitoes (mean ± s.e.m.), ATP + antagonist", "setting": "A. gambiae; antagonist 20 μM + 20 μM ATP", "result": 79.19, "unit": "%"}, {"measurement": "feeding inhibition at maximum dose tested", "setting": "A. gambiae; maximum dose 20 μM, with 20 μM ATP", "result": "No feeding inhibition"}, {"measurement": "Mean no. of spikes per 2 s (±s.e.m.), ATP + antagonist", "setting": "[1]; antagonist 1000 nM + 200 pM ATP", "result": 27.14, "unit": "spikes per 2 s"}, {"measurement": "ID50/ID95: block at maximum dose tested", "setting": "[1]; maximum dose 1 μM, admixed to 200 pM ATP", "result": "No block (1 μM)"}]}, {"smiles": "Cn1c(=O)c2[nH]c(C3CCCC3)nc2n(C)c1=O", "note": "[CPT, 8-cyclopentyl-1,3-dimethylxanthine]", "values": [{"measurement": "% Engorged mosquitoes", "setting": "A. gambiae; 10 μM CPT + 20 μM ATP", "result": "65.4 ± 10.2", "unit": "%"}, {"measurement": "% Engorged mosquitoes", "setting": "A. gambiae; 10 μM CPT + 1 mM Adenosine", "result": "48.7 ± 7.0", "unit": "%"}, {"measurement": "effect on feeding on adenosine, in words", "setting": "A. gambiae; 10 μM CPT, 1 mM adenosine in feeding solution", "result": "significantly inhibited"}, {"measurement": "effect on feeding on solution containing ATP, in words", "setting": "A. gambiae", "result": "not"}, {"measurement": "effect on EP response to ATP, in words", "setting": "[1]; 200 pM ATP", "result": "not"}, {"measurement": "effect on EP response to adenosine, in words", "setting": "malaria mosquito P1 PR; 200 pM adenosine, suramin at 1 nM", "result": "inhibited"}, {"measurement": "duration of inhibition of the response to adenosine", "setting": "malaria mosquito P1 PR; adenosine presented again approximately 2 min after antagonist", "result": "at least 2 min"}]}, {"smiles": "Nc1c(S(=O)(=O)O)cc(Nc2ccc(Nc3nc(Cl)nc(Nc4cccc(S(=O)(=O)O)c4)n3)c(S(=O)(=O)O)c2)c2c1C(=O)c1ccccc1C2=O", "note": "[RB-2, 1-amino-4-[[4-[[4-chloro-6-[[3 (or 4)-sulfophenyl]amino]-1,3,5-triazin-2-yl]amino]-3-sulfophenyl]amino]-9,10-dihydro-9,10-dioxo-2-anthracenesulfonic acid]", "values": [{"measurement": "effect on feeding on solution containing ATP, in words", "setting": "A. gambiae", "result": "inhibited feeding"}, {"measurement": "% fed mosquitoes (mean ± s.e.m.), ATP + antagonist", "setting": "A. gambiae; antagonist 0.1 μM + 20 μM ATP", "result": 32.88, "unit": "%"}, {"measurement": "persistent antagonism to ATP presented approximately 2 min later, in words", "setting": "[1]; 200 pM ATP", "result": "not"}, {"measurement": "effect on EP response to ATP, in words", "setting": "[1]; 200 pM ATP", "result": "inhibited"}, {"measurement": "Mean no. of spikes per 2 s (±s.e.m.), ATP + antagonist", "setting": "[1]; antagonist 50 nM + 200 pM ATP", "result": 12.83, "unit": "spikes per 2 s"}, {"measurement": "ID95 in nM (±s.e.m.)", "setting": "[1]", "result": 113.02, "unit": "nM"}]}]}
